This passage reports EC50 and Activity results from ChEMBL document CHEMBL3390842 (Medchemcomm, 2012).

In general, EC50 refers to the midpoint of the concentration-response curve. A low value points to an effect from little substance.

The source made the active and inactive calls. The calls are words filed in the database; no cut-off is given here.

For assay [1], the target named is T1, G-protein coupled receptor 35 (Homo sapiens, UniProt Q9HC97). The format is cell-based, HT-29.
For assay [2], the target named is T1, G-protein coupled receptor 35. The class given is cell-based, U2OS.
The target is the same in assay [3]. Description: Agonist activity at GPR35 in human HT-29 cells assessed as induction of whole cell dynamic mass redistribution at 32 uM after 50 mins by resonant waveguide grating biosensor analysis in presence of GPR35 antagonist ML-145. The class given is cell-based.
Assay [4] has the same target. The experiment in a line: Agonist activity at GPR35 in human HT-29 cells assessed as induction of whole cell dynamic mass redistribution at 128 uM after 50 mins by resonant waveguide grating biosensor analysis in presence of GPR35 antagonist ML-145. The format is cell-based.

T1 sequence (Q9HC97 whole entry): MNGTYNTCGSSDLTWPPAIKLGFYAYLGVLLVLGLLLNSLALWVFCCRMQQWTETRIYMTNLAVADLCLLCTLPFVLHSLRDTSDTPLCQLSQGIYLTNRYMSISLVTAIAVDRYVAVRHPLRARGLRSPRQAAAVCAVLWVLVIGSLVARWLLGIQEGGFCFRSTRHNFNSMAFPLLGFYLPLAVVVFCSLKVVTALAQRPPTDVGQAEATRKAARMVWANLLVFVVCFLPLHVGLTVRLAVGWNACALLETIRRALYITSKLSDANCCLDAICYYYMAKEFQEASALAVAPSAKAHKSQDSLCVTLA

For `CCN(CC)C(=O)/C(C#N)=C/c1cc(O)c(O)c([N+](=O)[O-])c1` [ENTACAPONE], the EC50 in assay [1] worked out at 5.66 µM; in assay [2], 65.6 µM.

Take `O=[N+]([O-])c1cc(O)c(O)c([N+](=O)[O-])c1`: the result in assay [3] was inactive.

Take `O=[N+]([O-])c1ccc(O)c([N+](=O)[O-])c1`: in assay [4], the result was Active.

Consider `CC(=O)C(=Cc1cc(O)c(O)c([N+](=O)[O-])c1)C(C)=O` [NITECAPONE], for which the EC50 in assay [1] amounted to 0.82 µM; in assay [2] it was 17.1 µM.

Consider `O=C(c1cc(O)c(O)c([N+](=O)[O-])c1)c1ccccc1F`, for which the results for the EC50 in assay [1] and in assay [2] were 8.66 µM and 54.4 µM, respectively. The outcome in assay [3] was Active.
